From US20240252488A1 (KOREA RESEARCH INSTITUTE OF CHEMICAL TECHNOLOGY, priority 2020, published 2024)

Columns and labels:
FADD−/− Jurkat cells = assay: Necroptosis inhibition assay, TNF-α-induced necroptosis (CellTiter-Glo 2.0); type: cell-based, human; details: TNF-α 15 ng/mL; for Necroptosis inhibition assay (Rescue %) 1 μM: compound 1 μM; for Necroptosis inhibition assay (Rescue %) 10 μM: compound 10 μM
How it was run: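 Necroptosis was triggered by TNF-α at 15 ng/mL final following 30 minutes of compound exposure (0.1, 1 or 10 μM final). Incubation ran 20 to 24 hours at 37° C under 5% CO2; cell ATP was then quantified by luminescence.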

MLKL [1] = biological target: T1, MLKL (Homo sapiens, UniProt Q8NB16); assay: MLKL degradation assay in HepG2 cell line (western blot); type: cell-based; parameters: endogenous in cells; host or cells: HepG2 or HaCaT; details: cell line not given; for Degradation assay (Degradation %) 1 μM: compound 1 μM; for Degradation assay (Degradation %) 10 μM: compound 10 μM
T1 sequence (Q8NB16 1-471): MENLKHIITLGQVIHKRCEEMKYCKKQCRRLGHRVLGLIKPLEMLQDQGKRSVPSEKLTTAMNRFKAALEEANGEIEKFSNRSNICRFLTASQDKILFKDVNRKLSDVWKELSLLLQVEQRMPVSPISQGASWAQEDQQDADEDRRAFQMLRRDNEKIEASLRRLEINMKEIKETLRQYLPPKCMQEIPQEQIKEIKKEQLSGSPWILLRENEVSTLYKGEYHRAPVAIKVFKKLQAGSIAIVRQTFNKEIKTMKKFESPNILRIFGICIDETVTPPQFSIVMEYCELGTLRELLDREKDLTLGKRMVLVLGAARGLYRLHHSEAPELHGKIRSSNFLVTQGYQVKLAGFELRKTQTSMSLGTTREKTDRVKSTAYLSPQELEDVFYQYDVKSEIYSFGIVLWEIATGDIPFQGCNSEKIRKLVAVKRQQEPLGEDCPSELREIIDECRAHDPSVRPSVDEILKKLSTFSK
How it was run: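 After treating HepG2 with test compounds (final 1 μM or 10 μM) for 20-24 h, we lysed cells, equalized protein by BCA and probed MLKL by overnight primary antibody at 4 °C followed by chemiluminescent detection.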

MLKL [2] = biological target: T1, MLKL; assay: Measurement of binding affinity with MLKL receptor (competitive binding assay, Kd); parameters: made in house; host or cells: HEK 293 cell line (T7 phage in E. coli BL21-derived host is also described)
How it was run: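 HEK 293-expressed, DNA-tagged MLKL; ligand beads blocked with biotin and SeaBlock/1% BSA/0.05% Tween 20/1 mM DTT buffer. Cpd from 111× DMSO stock, 0.9% DMSO final. Eluted kinase by qPCR → Kd.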

Degradation assay (Degradation %) 1 μM (MLKL [1]) [%] | Degradation assay (Degradation %) 10 μM (MLKL [1]) [%] | Kd (MLKL [2]) [nM] | SMILES | Necroptosis inhibition assay (Rescue %) 1 μM (FADD−/− Jurkat cells) [%] | Necroptosis inhibition assay (Rescue %) 10 μM (FADD−/− Jurkat cells) [%] | Necroptosis inhibition assay (Rescue %) 1.1 μM (FADD−/− Jurkat cells; compound 1.1 µM)
85.62 | 81.91 | 1.2 | Nc1ncc(-c2cnn(C3CCN(C[C@H]4CC[C@H](CNC(=O)COc5ccc6c(c5)C(=O)N(C5CCC(=O)NC5=O)C6=O)CC4)CC3)c2)nc1C(=O)O[C@@H](C(=O)Nc1ccc(F)cc1)c1ccccc1 (stereo partly drawn) [TDH-346, (R)-2-((4-fluorophenyl)amino)-2-oxo-1-phenylethyl 3-amino-6-(1-(1-(((1r,4r)-4-((2-((2-(2,6-dioxopiperidin-3-yl)-1,3-dioxoisoindolin-5-yl)oxy)acetamido)methyl)cyclohexyl)methyl)piperidin-4-yl)-1H-pyrazol-4-yl)pyrazine-2-carboxylate] | 57.41 | 24.57 | 
77.96 | 85.06 | 1.9 | Nc1ncc(-c2cnn(C3CCN(C[C@H]4CC[C@H](CNC(=O)CNc5cccc6c5C(=O)N(C5CCC(=O)NC5=O)C6=O)CC4)CC3)c2)nc1C(=O)O[C@@H](C(=O)Nc1ccc(F)cc1)c1ccccc1 (stereo partly drawn) [TDH-347, (R)-2-((4-fluorophenyl)amino)-2-oxo-1-phenylethyl 3-amino-6-(1-(1-(((1r,4r)-4-((2-((2-(2,6-dioxopiperidin-3-yl)-1,3-dioxoisoindolin-4-yl)amino)acetamido)methyl)cyclohexyl)methyl)piperidin-4-yl)-1H-pyrazol-4-yl)pyrazine-2-carboxylate] | 23.88 | 12.87 | 
48.66 | 81.15 | 1.6 | Nc1ncc(-c2cnn(C3CCN(C[C@H]4CC[C@H](CNC(=O)CNc5ccc6c(c5)C(=O)N(C5CCC(=O)NC5=O)C6=O)CC4)CC3)c2)nc1C(=O)O[C@@H](C(=O)Nc1ccc(F)cc1)c1ccccc1 (stereo partly drawn) [TDH-348, (R)-2-((4-fluorophenyl)amino)-2-oxo-1-phenylethyl 3-amino-6-(1-(1-(((1r,4r)-4-((2-((2-(2,6-dioxopiperidin-3-yl)-1,3-dioxoisoindolin-5-yl)amino)acetamido)methyl)cyclohexyl)methyl)piperidin-4-yl)-1H-pyrazol-4-yl)pyrazine-2-carboxylate] | 61.43 | 29.04 | 
93.71 | 92.68 | 3.7 | Nc1ncc(-c2cnn(C3CCN(C[C@H]4CC[C@H](CNC(=O)C5CCN(c6cccc7c6C(=O)N(C6CCC(=O)NC6=O)C7=O)CC5)CC4)CC3)c2)nc1C(=O)O[C@@H](C(=O)Nc1ccc(F)cc1)c1ccccc1 (stereo partly drawn) [TDH-349, (R)-2-((4-fluorophenyl)amino)-2-oxo-1-phenylethyl 3-amino-6-(1-(1-(((1r,4r)-4-((1-(2-(2,6-dioxopiperidin-3-yl)-1,3-dioxoisoindolin-4-yl)piperidine-4-carboxamido)methyl)cyclohexyl)methyl)piperidin-4-yl)-1H-pyrazol-4-yl)pyrazine-2-carboxylate] | 45.54 | 42.11 | 
86.13 | 88.73 | 3.7 | Nc1ncc(-c2cnn(C3CCN(C[C@H]4CC[C@H](CNC(=O)C5CCN(c6ccc7c(c6)C(=O)N(C6CCC(=O)NC6=O)C7=O)CC5)CC4)CC3)c2)nc1C(=O)O[C@@H](C(=O)Nc1ccc(F)cc1)c1ccccc1 (stereo partly drawn) [TDH-350, (R)-2-((4-fluorophenyl)amino)-2-oxo-1-phenylethyl 3-amino-6-(1-(1-(((1r,4r)-4-((1-(2-(2,6-dioxopiperidin-3-yl)-1,3-dioxoisoindolin-5-yl)piperidine-4-carboxamido)methyl)cyclohexyl)methyl)piperidin-4-yl)-1H-pyrazol-4-yl)pyrazine-2-carboxylate] | 39.64 | 34.84 | 
62.4 | 24.61 | 6.1 | Nc1ncc(-c2cnn(C3CCN(C[C@H]4CC[C@H](CNc5cccc6c5C(=O)N(C5CCC(=O)NC5=O)C6=O)CC4)CC3)c2)nc1C(=O)O[C@@H](C(=O)Nc1ccc(F)cc1)c1ccccc1 (stereo partly drawn) [TDH-351, (R)-2-((4-fluorophenyl)amino)-2-oxo-1-phenylethyl 3-amino-6-(1-(1-(((1r,4r)-4-(((2-(2,6-dioxopiperidin-3-yl)-1,3-dioxoisoindolin-4-yl)amino)methyl)cyclohexyl)methyl)piperidin-4-yl)-1H-pyrazol-4-yl)pyrazine-2-carboxylate] | 0.74 | 3.39 | 
50.93 | 42.16 | 5.4 | Nc1ncc(-c2cnn(C3CCN(C[C@H]4CC[C@H](CNc5ccc6c(c5)C(=O)N(C5CCC(=O)NC5=O)C6=O)CC4)CC3)c2)nc1C(=O)O[C@@H](C(=O)Nc1ccc(F)cc1)c1ccccc1 (stereo partly drawn) [TDH-352, (R)-2-((4-fluorophenyl)amino)-2-oxo-1-phenylethyl 3-amino-6-(1-(1-(((1r,4r)-4-(((2-(2,6-dioxopiperidin-3-yl)-1,3-dioxoisoindolin-5-yl)amino)methyl)cyclohexyl)methyl)piperidin-4-yl)-1H-pyrazol-4-yl)pyrazine-2-carboxylate] | 11.36 | 5.3 | 
75.35 | 86.12 | 26 | Nc1ncc(-c2cnn(C3CCN(C(=O)C4CCN(C(=O)CNc5ccc6c(c5)C(=O)N(C5CCC(=O)NC5=O)C6=O)CC4)CC3)c2)nc1C(=O)O[C@@H](C(=O)Nc1ccc(F)cc1)c1ccccc1 (stereo partly drawn) [TDH-353, (R)-2-((4-fluorophenyl)amino)-2-oxo-1-phenylethyl 3-amino-6-(1-(1-(1-((2-(2,6-dioxopiperidin-3-yl)-1,3-dioxoisoindolin-5-yl)glycyl)piperidine-4-carbonyl)piperidin-4-yl)-1H-pyrazol-4-yl)pyrazine-2-carboxylate] |  | 49.23 | 55.34 (1.1µM) %
68.16 | 66.72 | 1.4 | Nc1ncc(-c2cnn(C3CCN(C(=O)c4cn(C5CCN(C(=O)COc6cccc7c6C(=O)N(C6CCC(=O)NC6=O)C7=O)CC5)cn4)CC3)c2)nc1C(=O)O[C@@H](C(=O)Nc1ccc(F)cc1)c1ccccc1 (stereo partly drawn) [TDH-354, (R)-2-((4-fluorophenyl)amino)-2-oxo-1-phenylethyl 3-amino-6-(1-(1-(1-(1-(2-((2-(2,6-dioxopiperidin-3-yl)-1,3-dioxoisoindolin-4-yl)oxy)acetyl)piperidin-4-yl)-1H-imidazole-4-carbonyl)piperidin-4-yl)-1H-pyrazol-4-yl)pyrazine-2-carboxylate] | 31.96 | 35.2 | 
59.51 | 61.42 | 1.9 | Nc1ncc(-c2cnn(C3CCN(C(=O)c4cn(C5CCN(C(=O)COc6ccc7c(c6)C(=O)N(C6CCC(=O)NC6=O)C7=O)CC5)cn4)CC3)c2)nc1C(=O)O[C@@H](C(=O)Nc1ccc(F)cc1)c1ccccc1 (stereo partly drawn) [TDH-355, (R)-2-((4-fluorophenyl)amino)-2-oxo-1-phenylethyl 3-amino-6-(1-(1-(1-(1-(2-((2-(2,6-dioxopiperidin-3-yl)-1,3-dioxoisoindolin-5-yl)oxy)acetyl)piperidin-4-yl)-1H-imidazole-4-carbonyl)piperidin-4-yl)-1H-pyrazol-4-yl)pyrazine-2-carboxylate] | 22.40 | 26.54 | 
22.83 |  | 4.6 | Nc1ncc(-c2cnn(C3CCN(C(=O)c4cn(C5CCN(C(=O)CNc6cccc7c6C(=O)N(C6CCC(=O)NC6=O)C7=O)CC5)cn4)CC3)c2)nc1C(=O)O[C@@H](C(=O)Nc1ccc(F)cc1)c1ccccc1 (stereo partly drawn) [TDH-356, (R)-2-((4-fluorophenyl)amino)-2-oxo-1-phenylethyl 3-amino-6-(1-(1-(1-(1-((2-(2,6-dioxopiperidin-3-yl)-1,3-dioxoisoindolin-4-yl)glycyl)piperidin-4-yl)-1H-imidazole-4-carbonyl)piperidin-4-yl)-1H-pyrazol-4-yl)pyrazine-2-carboxylate] | 5.27 | 0.50 | 
